Measurements from patent US20250288535A1, “INSTANT NANOPARTICLE COMPOSITION AND PREPARATION METHOD THEREFOR” (CSPC ZHONGQI PHARMACEUTICAL TECHNOLOGY (SHIJIAZHUANG) CO., …, priority 2022, published 2025).

Experiment: Tissue distribution in JIMT-1 tumor-bearing mice
Format: in vivo
Conditions: 20 mg/kg tail vein injection
Protocol: 48 human breast cancer JIMT-1 tumor-bearing mice were randomly divided into 2 experimental groups, with a total of 6 mice in each experimental group at each time point. Both of the two preparations were administered to the respective experimental mice at a dose of 20 mg/kg through tail vein injection. Blood samples were collected from each group at 0.25, 1, 3 and 24 hours after administration and the mice were sacrificed immediately. Tumor, heart, liver, spleen, lung, kidney, stomach, small intestine, pancreas and ovary tissues were dissected and subjected to pretreatments such as homogenization, the drug concentration in each tissue sample was determined by protein precipitation-LC/MS/MS method, and the main pharmacokinetic parameters were calculated by using the non-compartmental model of Phoenix WinNonlin 8.0 software (Pharsight, USA).

## CC(=O)O[C@H]1C(=O)[C@@]2(C)[C@H]([C@H](OC(=O)c3ccccc3)[C@]3(O)C[C@H](OC(=O)[C@H](O)[C@@H](NC(=O)c4ccccc4)c4ccccc4)C(C)=C1C3(C)C)[C@]1(OC(C)=O)CO[C@@H]1C[C@@H]2O [paclitaxel]
  tissue with the highest exposure: highest exposure in the liver
